Test system: 188146-221-R-J1-PDC complex spheroid viability
Experiment: Anticancer human tumor 188146-221-R-J1-PDC patient-derived colon adenocarcinoma cell line growth inhibition [POLQ]
Conditions: for IC50: curve of first compound; for viability, T/C: stronger effect = lower value
Method in brief: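 Growth inhibition in 3D: complex spheroids (tumor PDC, HUVEC, MSC) treated with POLQ inhibitor combinations; where Cmax unknown, highest tested concentration 10 microM, except SN-38 at 1 microM.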

[1] = second compound 0.0316 µM, first compound 0.0316 µM
[2] = second compound 0.0316 µM, first compound 0.1 µM
[3] = second compound 0.0316 µM, first compound 0.316 µM
[4] = second compound 0.0316 µM, first compound 1 µM
[5] = second compound 0.1 µM, first compound 0.0316 µM
[6] = second compound 0.1 µM, first compound 0.1 µM
[7] = second compound 0.1 µM, first compound 0.316 µM
[8] = second compound 0.1 µM, first compound 1 µM
[9] = second compound 0.316 µM, first compound 0.0316 µM
[10] = second compound 0.316 µM, first compound 0.1 µM
[11] = second compound 0.316 µM, first compound 0.316 µM
[12] = second compound 0.316 µM, first compound 1 µM
[13] = second compound 1 µM, first compound 0.0316 µM
[14] = second compound 1 µM, first compound 0.1 µM
[15] = second compound 1 µM, first compound 0.316 µM
[16] = second compound 1 µM, first compound 1 µM
[17] = second compound 3.16 µM, first compound 0.0316 µM
[18] = second compound 3.16 µM, first compound 0.1 µM
[19] = second compound 3.16 µM, first compound 0.316 µM
[20] = second compound 3.16 µM, first compound 1 µM
[21] = second compound 10 µM, first compound 0.0316 µM
[22] = second compound 10 µM, first compound 0.1 µM
[23] = second compound 10 µM, first compound 0.316 µM
[24] = second compound 10 µM, first compound 1 µM
[25] = second compound 0.0316 µM, first compound 3.16 µM
[26] = second compound 0.0316 µM, first compound 10 µM
[27] = second compound 0.1 µM, first compound 3.16 µM
[28] = second compound 0.1 µM, first compound 10 µM
[29] = second compound 0.316 µM, first compound 3.16 µM
[30] = second compound 0.316 µM, first compound 10 µM
[31] = second compound 1 µM, first compound 3.16 µM
[32] = second compound 1 µM, first compound 10 µM
[33] = second compound 3.16 µM, first compound 3.16 µM
[34] = second compound 3.16 µM, first compound 10 µM
[35] = second compound 10 µM, first compound 3.16 µM
[36] = second compound 10 µM, first compound 10 µM
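Also: spheroids exposed to compounds for seven days.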
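For viability, T/C in this document: 100% = DMSO vehicle control viability.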

For `COc1cccc(OCCCN)c1-c1cc(Nc2cnc(C#N)cn2)n[nH]1` + Cc1cccc(N(C)C(=O)C2C(O)CCN2c2nc(C)cc(C(F)(F)F)c2C#N)c1, the IC50 (second compound 0.0316 µM) was 0.0555 µM, the IC50 (second compound 0.1 µM) was 0.0609 µM and the IC50 (second compound 0.316 µM) was 0.0515 µM. The IC50 (second compound 1 µM) was 0.0412 µM, the IC50 (second compound 3.16 µM) was 0.0473 µM and the IC50 (second compound 10 µM) was 0.0222 µM. For the same compound, the viability, T/C (second compound 0.0316 µM, first compound 0.00316 µM) was 100%, the viability, T/C (second compound 0.0316 µM, first compound 0.01 µM) was 103% and the viability, T/C [1] was 61.5%. It also gave a viability, T/C [2] of 36.1%, a viability, T/C [3] of 18.5% and a viability, T/C [4] of 12.1%. It also gave a viability, T/C (second compound 0.1 µM, first compound 0.00316 µM) of 99.9%, a viability, T/C (second compound 0.1 µM, first compound 0.01 µM) of 90% and a viability, T/C [5] of 75.8%. It also gave a viability, T/C [6] of 30.7%, a viability, T/C [7] of 15.9% and a viability, T/C [8] of 14.2%. For the same compound, the viability, T/C (second compound 0.316 µM, first compound 0.00316 µM) was 105%, the viability, T/C (second compound 0.316 µM, first compound 0.01 µM) was 89.7% and the viability, T/C [9] was 66%. It also gave a viability, T/C [10] of 29.6%, a viability, T/C [11] of 17.4% and a viability, T/C [12] of 13.6%. It also gave a viability, T/C (second compound 1 µM, first compound 0.00316 µM) of 113%, a viability, T/C (second compound 1 µM, first compound 0.01 µM) of 104% and a viability, T/C [13] of 54.4%. The viability, T/C [14] was 29%, the viability, T/C [15] was 17.1% and the viability, T/C [16] was 12.6%. For the same compound, the viability, T/C (second compound 3.16 µM, first compound 0.00316 µM) was 91.7%, the viability, T/C (second compound 3.16 µM, first compound 0.01 µM) was 82.1% and the viability, T/C [17] was 62.8%. The viability, T/C [18] was 27.7%, the viability, T/C [19] was 15.6% and the viability, T/C [20] was 14%. For the same compound, the viability, T/C (second compound 10 µM, first compound 0.00316 µM) was 96%, the viability, T/C (second compound 10 µM, first compound 0.01 µM) was 75.3% and the viability, T/C [21] was 37.3%. The viability, T/C [22] was 24.4%, the viability, T/C [23] was 16.9% and the viability, T/C [24] was 14.6%.

With `COc1cccc2c1C(=O)c1c(O)c3c(c(O)c1C2=O)CC(O)(C(=O)CO)CC3OC1CC(N)C(O)C(C)O1` (stereo not drawn) + Cc1cccc(N(C)C(=O)C2C(O)CCN2c2nc(C)cc(C(F)(F)F)c2C#N)c1 the IC50 (second compound 0.0316 µM) was 0.102 µM, the IC50 (second compound 0.1 µM) was 0.146 µM and the IC50 (second compound 0.316 µM) was 0.117 µM. The IC50 (second compound 1 µM) was 0.117 µM, the IC50 (second compound 3.16 µM) was 0.0979 µM and the IC50 (second compound 10 µM) was 0.0754 µM. The viability, T/C [1] was 83.8%, the viability, T/C [2] was 48% and the viability, T/C [3] was 31.3%. The viability, T/C [4] was 9.29%, the viability, T/C [25] was 0.34% and the viability, T/C [26] was 0.84%. It also gave a viability, T/C [5] of 75.1%, a viability, T/C [6] of 56.8% and a viability, T/C [7] of 34.5%. It also gave a viability, T/C [8] of 8.42%, a viability, T/C [27] of 0.28% and a viability, T/C [28] of 0.45%. The viability, T/C [9] was 81%, the viability, T/C [10] was 48.9% and the viability, T/C [11] was 36.7%. It also gave a viability, T/C [12] of 10%, a viability, T/C [29] of 0.19% and a viability, T/C [30] of 0.47%. It also gave a viability, T/C [13] of 74%, a viability, T/C [14] of 51% and a viability, T/C [15] of 32.6%. It also gave a viability, T/C [16] of 10.9%, a viability, T/C [31] of 0.17% and a viability, T/C [32] of 0.44%. It also gave a viability, T/C [17] of 69.8%, a viability, T/C [18] of 47.2% and a viability, T/C [19] of 29.8%. It also gave a viability, T/C [20] of 6.51%, a viability, T/C [33] of 0.32% and a viability, T/C [34] of 0.65%. For the same compound, the viability, T/C [21] was 74.8%, the viability, T/C [22] was 39.5% and the viability, T/C [23] was 26.4%. The viability, T/C [24] was 3.83%, the viability, T/C [35] was 0.3% and the viability, T/C [36] was 0.64%.

In the case of `Nc1ccn(C2OC(CO)C(O)C2(F)F)c(=O)n1` (stereo not drawn) + Cc1cccc(N(C)C(=O)C2C(O)CCN2c2nc(C)cc(C(F)(F)F)c2C#N)c1, the IC50 (second compound 0.0316 µM) is reported as under 0.0316 µM, the IC50 (second compound 0.1 µM) is reported as under 0.0316 µM and the IC50 (second compound 0.316 µM) is reported as under 0.0316 µM. The IC50 (second compound 1 µM) was under 0.0316 µM, the IC50 (second compound 3.16 µM) was under 0.0316 µM and the IC50 (second compound 10 µM) was under 0.0316 µM. The viability, T/C [1] was 35.5%, the viability, T/C [2] was 20.8% and the viability, T/C [3] was 14.7%. It also gave a viability, T/C [4] of 18.1%, a viability, T/C [25] of 17.1% and a viability, T/C [26] of 10.2%. The viability, T/C [5] was 41%, the viability, T/C [6] was 23.8% and the viability, T/C [7] was 15.2%. For the same compound, the viability, T/C [8] was 15.9%, the viability, T/C [27] was 14.9% and the viability, T/C [28] was 11.3%. The viability, T/C [9] was 31.9%, the viability, T/C [10] was 20.5% and the viability, T/C [11] was 14.2%. It also gave a viability, T/C [12] of 15%, a viability, T/C [29] of 16.9% and a viability, T/C [30] of 14.1%. For the same compound, the viability, T/C [13] was 28.1%, the viability, T/C [14] was 25.9% and the viability, T/C [15] was 20.2%. For the same compound, the viability, T/C [16] was 16.2%, the viability, T/C [31] was 14.3% and the viability, T/C [32] was 10.8%. For the same compound, the viability, T/C [17] was 24.6%, the viability, T/C [18] was 22.5% and the viability, T/C [19] was 15.8%. It also gave a viability, T/C [20] of 16.5%, a viability, T/C [33] of 17.8% and a viability, T/C [34] of 11.1%. The viability, T/C [21] was 31.1%, the viability, T/C [22] was 19.1% and the viability, T/C [23] was 20.3%. The viability, T/C [24] was 22%, the viability, T/C [35] was 20.5% and the viability, T/C [36] was 11.4%.

`O=c1[nH]cc(F)c(=O)[nH]1` + Cc1cccc(N(C)C(=O)C2C(O)CCN2c2nc(C)cc(C(F)(F)F)c2C#N)c1 was tested, and the IC50 (second compound 0.0316 µM) was 2.44 µM, the IC50 (second compound 0.1 µM) was 1.38 µM and the IC50 (second compound 0.316 µM) was 1.82 µM. For the same compound, the IC50 (second compound 1 µM) was 1.68 µM, the IC50 (second compound 3.16 µM) was 1.34 µM and the IC50 (second compound 10 µM) was 1.69 µM. For the same compound, the viability, T/C [1] was 107%, the viability, T/C [2] was 91.7% and the viability, T/C [3] was 73.5%. For the same compound, the viability, T/C [4] was 57.7%, the viability, T/C [25] was 50.8% and the viability, T/C [26] was 34.5%. It also gave a viability, T/C [5] of 102%, a viability, T/C [6] of 96.7% and a viability, T/C [7] of 73.9%. It also gave a viability, T/C [8] of 52.6%, a viability, T/C [27] of 45% and a viability, T/C [28] of 37%. It also gave a viability, T/C [9] of 93%, a viability, T/C [10] of 87% and a viability, T/C [11] of 80%. The viability, T/C [12] was 57%, the viability, T/C [29] was 43.5% and the viability, T/C [30] was 34.9%. The viability, T/C [13] was 79.8%, the viability, T/C [14] was 84.6% and the viability, T/C [15] was 74.3%. It also gave a viability, T/C [16] of 57.1%, a viability, T/C [31] of 41.7% and a viability, T/C [32] of 37.5%. It also gave a viability, T/C [17] of 90.2%, a viability, T/C [18] of 82.5% and a viability, T/C [19] of 72.9%. It also gave a viability, T/C [20] of 50.2%, a viability, T/C [33] of 44.7% and a viability, T/C [34] of 36.2%. The viability, T/C [21] was 91.1%, the viability, T/C [22] was 85.5% and the viability, T/C [23] was 76.6%. It also gave a viability, T/C [24] of 51.7%, a viability, T/C [35] of 47.9% and a viability, T/C [36] of 34.4%.

From PubChem BioAssay AID1963851 (Molecular Pharmacology Branch, DTP, NCI, 2024)
